Measured values: the supplement of paper PMC13380429

Key:
Conditions in all cases: 72 h
[1] = system: Caco-2; assay: cell viability relative to DMSO; higher = less toxic
[2] = system: Calu-3; assay: as above
[3] = system: HepG2; assay: as above
[4] = system: U2OS; assay: as above
[5] = system: Vero E6; assay: as above
[6] = system: Caco-2; assay: relative viability EC50 (midpoint between 100% and the lowest measured viability); higher = less toxic
[7] = system: Calu-3; assay: as above
[8] = system: HepG2; assay: as above
[9] = system: U2OS; assay: as above
[10] = system: Vero E6; assay: as above
[11] = system: Caco-2; assay: drug sensitivity score (DSS) for viability; higher = more toxic; extreme values may be limits of the assay
[12] = system: Calu-3; assay: as above
[13] = system: HepG2; assay: as above
[14] = system: U2OS; assay: as above
[15] = system: Vero E6; assay: as above

Row | Structure (SMILES) | cell viability ([1]; 1 nM) [%] | cell viability ([1]; 10 nM) [%] | cell viability ([1]; 100 nM) [%] | cell viability ([1]; 1000 nM) [%] | cell viability ([1]; 10000 nM) [%] | cell viability ([2]; 1 nM) [%] | cell viability ([2]; 10 nM) [%] | cell viability ([2]; 100 nM) [%] | cell viability ([2]; 1000 nM) [%] | cell viability ([2]; 10000 nM) [%] | cell viability ([3]; 1 nM) [%] | cell viability ([3]; 10 nM) [%] | cell viability ([3]; 100 nM) [%] | cell viability ([3]; 1000 nM) [%] | cell viability ([3]; 10000 nM) [%] | cell viability ([4]; 1 nM) [%] | cell viability ([4]; 10 nM) [%] | cell viability ([4]; 100 nM) [%] | cell viability ([4]; 1000 nM) [%] | cell viability ([4]; 10000 nM) [%] | cell viability ([5]; 1 nM) [%] | cell viability ([5]; 10 nM) [%] | cell viability ([5]; 100 nM) [%] | cell viability ([5]; 1000 nM) [%] | cell viability ([5]; 10000 nM) [%] | relative viability EC50 [6] [µM] | relative viability EC50 [7] [µM] | relative viability EC50 [8] [µM] | relative viability EC50 [9] [µM] | relative viability EC50 [10] [µM] | drug sensitivity score [11] | drug sensitivity score [12] | drug sensitivity score [13] | drug sensitivity score [14] | drug sensitivity score [15]
1 | CN1C[C@H](CNC(=O)OCc2ccccc2)C[C@@H]2c3cccc4c3c(cn4C)C[C@H]21 [metergoline] | 116 | 91.3 | 101 | 88.1 | 99.6 | 101 | 92.2 | 101 | 89.8 | 104 | 101 | 98.5 | 100 | 96.9 | 84.6 | 95.4 | 99.1 | 104 | 96.4 | 95.8 | 105 | 105 | 95.2 | 94 | 84.2 | > 10 | > 10 | > 10 | > 10 | > 10 | 0 | 0 | 0.6 | 0 | 0.4
2 | COc1ccc(-c2nc(-c3ccc(-c4cccc(Cl)c4)o3)[nH]c2-c2ccc(OC)cc2)cc1 [neurodazine] | 106 | 94.9 | 109 | 103 | 84.4 | 91.4 | 96 | 97.2 | 79.6 | 89.6 | 112 | 99.5 | 96.3 | 98.2 | 86.2 | 100 | 99 | 105 | 96.3 | 96.1 | 109 | 103 | 98.4 | 102 | 96.6 | > 10 | > 10 | > 10 | > 10 | > 10 | 0.2 | 0.6 | 0.3 | 0 | 0
3 | O=C(O)[C@H]1CN(CCCP(=O)(O)O)CCN1 [CPP] | 97 | 101 | 103 | 101 | 94.5 | 102 | 104 | 92.6 | 89.4 | 90.5 | 96.6 | 112 | 98.6 | 103 | 104 | 103 | 106 | 101 | 101 | 99.8 | 99.2 | 103 | 99.8 | 102 | 102 | > 10 | > 10 | > 10 | > 10 | > 10 | 0 | 0.2 | 0 | 0 | 0
4 | O=C(O)C[C@H]1CC[C@H](c2ccc(NC(=O)c3nnc(Nc4ccc(F)c(F)c4)o3)cc2)CC1 [AZD3988] | 99 | 104 | 96.6 | 100 | 87.9 | 104 | 104 | 97.6 | 108 | 100 | 110 | 105 | 103 | 93 | 102 | 99.7 | 98.8 | 97.2 | 103 | 94.7 | 97.9 | 97.4 | 95.2 | 95.3 | 101 | > 10 | > 10 | > 10 | > 10 | > 10 | 0 | 0 | 0 | 0 | 0
5 | O=C(O)CNC(=O)c1ccccc1 [hippuric-acid] | 96.9 | 107 | 89.2 | 90 | 92.8 | 99 | 97.6 | 94.3 | 96.6 | 99.9 | 100 | 98.3 | 99.4 | 102 | 95.7 | 100 | 99.3 | 106 | 95.2 | 95.7 | 96 | 98.1 | 97.1 | 94.7 | 100 | > 10 | > 10 | > 10 | > 10 | > 10 | 0.4 | 0 | 0 | 0 | 0
6 | Fc1ccc(-c2cncc(CN3CCN(c4cccc5c4OCCO5)CC3)c2)cc1 [adoprazine] | 91 | 102 | 98.5 | 109 | 100 | 102 | 105 | 93.8 | 94.2 | 104 | 104 | 90.6 | 92.8 | 106 | 91.7 | 98.2 | 99.7 | 92.1 | 104 | 95.4 | 103 | 98.6 | 93.9 | 98.8 | 105 | > 10 | > 10 | > 10 | > 10 | > 10 | 0 | 0 | 0 | 0 | 0
7 | CCCNC(C)(C)COC(=O)c1ccccc1 [meprylcaine] | 98.1 | 104 | 94.3 | 106 | 96.6 | 102 | 112 | 105 | 99.9 | 94.5 | 86.3 | 100 | 94 | 95.6 | 91.9 | 98.6 | 98.2 | 103 | 97.7 | 99.5 | 96 | 103 | 91.8 | 95.2 | 103 | > 10 | > 10 | > 10 | > 10 | > 10 | 0 | 0 | 0 | 0 | 0
8 | CC(=O)N(CC(C)C(=O)O)c1c(I)cc(I)c(N)c1I (stereo not given) [iocetamic-acid] | 101 | 99.3 | 90.6 | 95.5 | 99.9 | 97.3 | 98.6 | 91.5 | 90.3 | 95.4 | 93 | 102 | 99.8 | 102 | 96.1 | 98.2 | 103 | 104 | 102 | 101 | 107 | 103 | 97.3 | 105 | 101 | > 10 | > 10 | > 10 | > 10 | > 10 | 0 | 0 | 0 | 0 | 0
9 | O=C(NCc1ccc(Oc2ccccc2)cc1)c1nc(-c2cc(Br)c(O)c(Br)c2)no1 [IOWH032] | 104 | 100 | 99.1 | 88.4 | 81 | 101 | 102 | 95.9 | 100 | 88.7 | 91.3 | 102 | 86.7 | 101 | 76.1 | 96.7 | 98.5 | 96.4 | 94.5 | 92.3 | 102 | 106 | 104 | 98.2 | 79.9 | > 10 | > 10 | > 10 | > 10 | > 10 | 1.4 | 0 | 0.8 | 0 | 0.8
10 | CNCC(=O)O [sarcosine] | 93.3 | 93.4 | 95.5 | 102 | 110 | 92.9 | 98.5 | 96.7 | 89.6 | 97.7 | 112 | 110 | 88.4 | 106 | 107 | 96.1 | 99.2 | 99.1 | 96 | 107 | 93.4 | 97.8 | 90.4 | 103 | 112 | > 10 | > 10 | > 10 | > 10 | > 10 | 0 | 0 | 0 | 0 | 0
11 | COc1ccc2c(c1)[C@]13CCCC[C@@H]1[C@H](C2)N(C)CC3 [dextromethorphan] | 98.1 | 98.9 | 104 | 97.7 | 97.7 | 95.6 | 106 | 89.6 | 99.3 | 102 | 111 | 108 | 95.8 | 103 | 109 | 97.1 | 98.3 | 99.7 | 95.3 | 97.1 | 92.1 | 100 | 97.3 | 95.9 | 104 | > 10 | > 10 | > 10 | > 10 | > 10 | 0 | 0 | 0 | 0 | 0
12 | O=C(NCC(=O)N1CCCCC1)Nc1ccc2nnsc2c1 [UNC2327] | 95.3 | 102 | 95.4 | 105 | 95.4 | 95 | 97.5 | 90.8 | 103 | 99.3 | 87.1 | 93.7 | 103 | 99.7 | 98.1 | 99.9 | 106 | 96.3 | 99.1 | 99.8 | 97.5 | 103 | 98.7 | 101 | 104 | > 10 | > 10 | > 10 | > 10 | > 10 | 0 | 0 | 0 | 0 | 0
13 | O=C(Nc1ccc2[nH]ccc2c1)c1ccccc1 [OAC2] | 91.9 | 91.3 | 95.1 | 98.7 | 94.5 | 102 | 99 | 104 | 99.3 | 96.6 | 104 | 106 | 97.3 | 99.7 | 101 | 103 | 97.2 | 97.1 | 104 | 95.3 | 92.3 | 95.7 | 99.6 | 92.8 | 95.5 | > 10 | > 10 | > 10 | > 10 | > 10 | 0 | 0 | 0 | 0 | 0
14 | CCN(C)C(=O)Oc1cccc([C@H](C)N(C)C)c1 [rivastigmine] | 109 | 95.5 | 104 | 96.7 | 95.8 | 93.5 | 95 | 101 | 98.3 | 94.4 | 113 | 102 | 98 | 106 | 98.2 | 95.8 | 99.2 | 99.9 | 98.7 | 103 | 101 | 106 | 103 | 106 | 97.6 | > 10 | > 10 | > 10 | > 10 | > 10 | 0 | 0 | 0 | 0 | 0
15 | COc1ccsc1CNCC[C@@]1(c2ccccn2)CCOC2(CCCC2)C1 [TRV130] | 105 | 104 | 101 | 93 | 97.6 | 103 | 96.9 | 101 | 112 | 104 | 105 | 95.6 | 91.9 | 102 | 94.9 | 103 | 102 | 102 | 96.9 | 100 | 96.9 | 100 | 95.7 | 94.5 | 96.6 | > 10 | > 10 | > 10 | > 10 | > 10 | 0 | 0 | 0 | 0 | 0
